# Experimental data: PMC5601360 (Journal of Medicinal Chemistry, 2017)
# How the values were obtained:
# human KOP receptor [1] = biological target: T1, human KOP receptor (Homo sapiens, UniProt P41145); experiment: [35S]GTPγS binding assay using CHO-hKOP cell membranes; format: biochemical; conditions: for EC50: CHO-hKOP membranes, mean ± SEM; for Emax: read-out: [35S]GTPγS KOP % stim
# T1 construct: expressed in transfected cells; host or cells: CHO-hKOP cells (gift of Dr. Lawrence Toll, SRI International)
# Protocol: The binding of [^35S]GTPγS to membranes from CHO cells stably expressing human KOP receptors (CHO-hKOP cells) was conducted according to the published procedures.[9a],[9b] CHO-hKOP cell membranes were prepared in buffer A (20 mM HEPES, 10 mM MgCl2, and 100 mM NaCl, pH 7.4). Cell membranes (8–15 μg) in buffer A were incubated with 0.05 nM [^35S]GTPγS, 10 μM GDP, and various concentrations of test compound in a final volume of 1 mL for 60 min at 25 °C. Nonspecific binding was determined using 10 μM GTPγS, and the basal binding was determined in the absence of test ligand. Samples are filtered over glass fiber filters and counted as described for binding assays. […] To determine the KOP antagonist activity, a concentration–response curve for U69,593 was obtained by assessing the [^35S]GTPγS binding to CHO-hKOP cell membranes in the presence or absence of test compound, as previously described.[9b] For each compound, the Schild analysis was conducted, utilizing a full agonist–dose response curve in the presence of at least two concentrations of the antagonist. The equilibrium dissociation constant (Ke) was calculated from the equation Ke = [a]/(DR – 1), where “a” is the concentration of antagonist and DR the virtual shift of the agonist concentration–response curve to the right in the presence of a given concentration of antagonist. All experiments were performed in duplicate and repeated at least three times.
# human MOP receptor = biological target: T2, human MOP receptor (Homo sapiens, UniProt P35372); experiment: Competition binding assay, CHO-hMOP cell membranes, [3H]DAMGO; conditions: mean ± SEM, read-out: receptor binding affinity Ki MOP
# T2 construct: expressed in transfected cells; host or cells: CHO-hMOP cells (gift of Dr. Lawrence Toll, SRI International)
# Protocol: (§1) CHO cells stably expressing recombinant human KOP, MOP, or DOP receptors (CHO-hKOP, CHO-hMOP, and CHO-hDOP cell lines) were kindly provided by Dr. Lawrence Toll (SRI International, Menlo Park, CA). The CHO-hKOP cell line was maintained in Dulbecco’s Minimal Essential Medium (DMEM) supplemented with fetal bovine serum (FBS, 10%), penicillin/streptomycin (0.1%), L-glutamine (2 mM), and geneticin (400 μg/mL). The CHO-hMOP and CHO-hDOP cell lines were maintained in DMEM/Ham’s F-12 medium supplemented with FBS (10%), penicillin/streptomycin (0.1%), L-glutamine (2 mM), and geneticin (400 μg/mL). Cell cultures were maintained at 37 °C in 5% CO2 humidified air.
# (§2) . Nonspecific binding was determined using 1–10 μM of the unlabeled counterpart of each radioligand. Assays were performed in 50 mM Tris-HCl buffer (pH 7.4) in a final volume of 1 mL. Cell membranes (15–20 μg) were incubated with the appropriate radioligand and various concentrations of test compound for 60 min at 25 °C. After incubation, reactions were terminated by rapid filtration through Whatman glass fiber filters. Filters were washed three times with 5 mL of ice-cold 50 mM Tris-HCl buffer (pH 7.4) using a Brandel M24R cell harvester (Gaithersburg, MD). Radioactivity retained on the filters was counted by liquid scintillation counting using a Beckman Coulter LS6500 (Beckman Coulter Inc., Fullerton, CA). All binding experiments were performed in duplicate and repeated at least three times. The inhibitory constant Ki values (in nM) were calculated from the competition binding curves by nonlinear regression analysis and the Cheng–Prusoff equation.[16]
# human KOP receptor [2] = biological target: T1, human KOP receptor; experiment: Competition binding assay, CHO-hKOP cell membranes, [3H]U69,593; conditions: for Ki: CHO-hKOP membranes, mean ± SEM, read-out: receptor binding affinity Ki KOP; for selectivity DOP/KOP: Ki ratio DOP/KOP; for selectivity MOP/KOP: Ki ratio MOP/KOP
# Protocol: as §1
# as §2, with “Nonspecific” for “. Nonspecific”
# [3] = system: acetic acid-induced writhing in CD1 mice; experiment: Acetic acid-induced writhing assay in mice after sc administration; format: in vivo; conditions: sc; for ED50: Mus musculus, 0.5 h, CD1 mice, inhibition of writhing at 30 min after drug administration, read-out: antinociceptive ED50 (95% CI)
# Protocol: Male CD1 mice (30–35 g, 6–8 weeks old) were obtained from the Center of Biomodels and Experimental Medicine (CBEM) (Innsbruck, Austria) or Charles River (Sulzfeld, Germany). Mice were group-housed in a temperature controlled room with a 12 h light/dark cycle and with free access to food and water. All animal studies were conducted in accordance with ethical guidelines and animal welfare standards according to Austrian regulations for animal research and were approved by the Committee of Animal Care of the Austrian Federal Ministry of Science and Research. Solutions of test compounds were prepared as 1% DMSO solutions in sterile physiological 0.9% saline and further diluted to working doses in saline solution. Test compounds or vehicle (saline) were administered by sc route in a volume of 10 μL/1 g of body weight. All doses are expressed in terms of salts. Separate groups of mice received the respective dose of compound, and individual mice were only used once for behavioral testing. Each experimental group included at least five animals.
# Writhing was induced in male CD1 mice by intraperitoneal (ip) injection of a 0.6% acetic acid aqueous solution as described previously.[9a] Groups of mice were administered sc different doses of test compound or saline (control), and then 5 min prior to testing (25 min after drug or saline) each animal received an ip injection of acetic acid solution. Each mouse was placed in individual transparent Plexiglas chambers, and the number of writhes was counted during a 10 min observation period. […] For the antagonism studies, nor-BNI (20 mg/kg) was sc administered 24 h before 2 (5 mg/kg) and 17 (10 mg/kg) was sc administered 15 min before U50,488 (2 mg/kg).
# human DOP receptor = biological target: T3, human DOP receptor (Homo sapiens, UniProt P41143); experiment: Competition binding assay, CHO-hDOP cell membranes, [3H]diprenorphine; conditions: mean ± SEM, read-out: receptor binding affinity Ki DOP
# T3 construct: expressed in transfected cells; host or cells: CHO-hDOP cells (gift of Dr. Lawrence Toll, SRI International)
# Protocol: as §1, §2
# [4] = percentage stimulation relative to the KOP full agonist U69,593
smiles,measurement,setting,value
"Cl.Oc1cccc(CCN(CCc2ccccc2)Cc2ccccc2)c1 [Compound 5, 3-[2-[(Benzyl)(phenethyl)amino]ethyl]phenol Hydrochloride]",EC50,human KOP receptor [1],4.65 ± 1.63 nM
same,Emax,human KOP receptor [1]; [4],≥ 80%
same,Ki,human MOP receptor,463 ± 95 nM
same,Ki,human KOP receptor [2],0.71 ± 0.25 nM
same,selectivity DOP/KOP,human KOP receptor [2],2623
same,selectivity MOP/KOP,human KOP receptor [2],652
same,ED50,[3],1.21 mg/kg
same,Ki,human DOP receptor,1860 ± 501 nM
"Cl.Oc1cccc(CCN(CCc2ccccc2)C2CCC2)c1 [Compound 6, 3-[2-[(Cyclobutyl)(phenethyl)amino]ethyl]phenol Hydrochloride]",EC50,human KOP receptor [1],46.1 ± 13.9 nM
same,Emax,human KOP receptor [1]; [4],50.7 ± 5%
same,Ki,human MOP receptor,670 ± 174 nM
same,Ki,human KOP receptor [2],10.3 ± 1.2 nM
same,selectivity DOP/KOP,human KOP receptor [2],344
same,selectivity MOP/KOP,human KOP receptor [2],65
same,Ki,human DOP receptor,3540 ± 38 nM
"CC(C)CCN(CCc1ccccc1)CCc1cccc(O)c1.Cl [Compound 7, 3-[2-[(Isoamyl)(phenethyl)amino]ethyl]phenol Hydrochloride]",EC50,human KOP receptor [1],22.1 ± 3.1 nM
same,Emax,human KOP receptor [1]; [4],74.7 ± 3.6%
same,Ki,human MOP receptor,259 ± 86 nM
same,Ki,human KOP receptor [2],2.69 ± 0.43 nM
same,selectivity DOP/KOP,human KOP receptor [2],1020
same,selectivity MOP/KOP,human KOP receptor [2],96
same,ED50,[3],2.78 mg/kg
same,Ki,human DOP receptor,2740 ± 677 nM
"Cl.Oc1cccc(CCN(CCc2cccc(O)c2)CC2CCC2)c1 [Compound 8, 3,3′-[2,2′-(Cyclobutylmethylazanediyl)bis(ethane-2,1-diyl)]diphenol Hydrochloride]",EC50,human KOP receptor [1],4.44 ± 1.36 nM
same,Emax,human KOP receptor [1]; [4],71.1 ± 5.2%
same,Ki,human MOP receptor,230 ± 43 nM
same,Ki,human KOP receptor [2],0.38 ± 0.09 nM
same,selectivity DOP/KOP,human KOP receptor [2],8789
same,selectivity MOP/KOP,human KOP receptor [2],605
same,ED50,[3],1.71 mg/kg
same,Ki,human DOP receptor,3340 ± 844 nM
"Cl.Oc1cccc(CCN(CCc2cccc(O)c2)CC2CC2)c1 [Compound 9, 3,3′-[2,2′-(Cyclopropylmethylazanediyl)bis(ethane-2,1-diyl)]diphenol Hydrochloride]",EC50,human KOP receptor [1],20.6 ± 0.6 nM
same,Emax,human KOP receptor [1]; [4],51.3 ± 7.6%
same,Ki,human MOP receptor,631 ± 215 nM
same,Ki,human KOP receptor [2],4.62 ± 0.11 nM
same,selectivity DOP/KOP,human KOP receptor [2],617
same,selectivity MOP/KOP,human KOP receptor [2],137
same,ED50,[3],4.73 mg/kg
same,Ki,human DOP receptor,2850 ± 720 nM
"C=CCN(CCc1cccc(O)c1)CCc1cccc(O)c1.Cl [Compound 10, 3,3′-[2,2′-(Allylazanediyl)bis(ethane-2,1-diyl)]diphenol Hydrochloride]",EC50,human KOP receptor [1],154 ± 62 nM
same,[35S]GTPγS KOP % stim,human KOP receptor [1]; [4],37.5 ± 0.6%
same,Emax,human KOP receptor [1]; [4],37.5%
same,Ki,human MOP receptor,358 ± 28 nM
same,Ki,human KOP receptor [2],19.1 ± 0.6 nM
same,selectivity DOP/KOP,human KOP receptor [2],39
same,selectivity MOP/KOP,human KOP receptor [2],19
same,Ki,human DOP receptor,738 ± 16 nM
"Cl.Oc1cccc(CCN(CCc2cccc(O)c2)CC2CCCCC2)c1 [Compound 11, 3,3′-[2,2′-(Cyclohexylmethylazanediyl)bis(ethane-2,1-diyl)]diphenol Hydrochloride]",EC50,human KOP receptor [1],17.6 ± 7.1 nM
same,Emax,human KOP receptor [1]; [4],≥ 80%
same,Ki,human MOP receptor,167 ± 52 nM
same,Ki,human KOP receptor [2],0.14 ± 0.04 nM
same,lower KOP affinity vs compound 4,human KOP receptor [2]; Ki comparison,about 2 fold
same,selectivity DOP/KOP,human KOP receptor [2],10229
same,selectivity MOP/KOP,human KOP receptor [2],1193
same,ED50,[3],0.95 mg/kg
same,Ki,human DOP receptor,1430 ± 506 nM
"Cl.Oc1cccc(CCN(CCc2cccc(O)c2)CC2CCCC2)c1 [Compound 12, 3,3′-[2,2′-(Cyclopentylmethylazanediyl)bis(ethane-2,1-diyl)]diphenol Hydrochloride]",EC50,human KOP receptor [1],13.7 ± 3.5 nM
same,decrease in in vitro agonist potency vs compound 3,human KOP receptor [1]; EC50 comparison,about 3 fold
same,Emax,human KOP receptor [1]; [4],≥ 80%
same,Ki,human MOP receptor,584 ± 119 nM
same,Ki,human KOP receptor [2],0.31 ± 0.04 nM
same,selectivity DOP/KOP,human KOP receptor [2],8952
same,selectivity MOP/KOP,human KOP receptor [2],1884
same,ED50,[3],1.19 mg/kg
same,reduction in antinociceptive potency vs compound 3,[3]; ED50 comparison,about 2 fold
same,Ki,human DOP receptor,2780 ± 545 nM
"CC(C)CCN(CCc1cccc(O)c1)CCc1cccc(O)c1.Cl [Compound 13, 3,3′-[2,2′-(Isoamylazanediyl)bis(ethane-2,1-diyl)]diphenol Hydrochloride]",EC50,human KOP receptor [1],16.6 ± 0.7 nM
same,Emax,human KOP receptor [1]; [4],65.6 ± 3.4%
same,Ki,human MOP receptor,211 ± 17 nM
same,Ki,human KOP receptor [2],2.1 ± 0.26 nM
same,selectivity DOP/KOP,human KOP receptor [2],699
same,selectivity MOP/KOP,human KOP receptor [2],100
same,ED50,[3],2.63 mg/kg
same,Ki,human DOP receptor,1470 ± 147 nM
"Cl.Oc1ccc(CCN(CCc2cccc(O)c2)CC2CCC2)cc1 [Compound 14, 3-[2-[(Cyclobutylmethyl)(4-hydroxyphenethyl)amino]ethyl]phenol Hydrochloride]",EC50,human KOP receptor [1],22.2 ± 3.6 nM
same,Emax,human KOP receptor [1]; [4],76.4 ± 1.1%
same,Ki,human MOP receptor,16.1 ± 4.7 nM
same,Ki,human KOP receptor [2],3.43 ± 0.75 nM
same,selectivity DOP/KOP,human KOP receptor [2],125
same,selectivity MOP/KOP,human KOP receptor [2],5
same,ED50,[3],1.73 mg/kg
same,Ki,human DOP receptor,428 ± 93 nM
"Cl.Oc1ccc(CCN(CCc2cccc(O)c2)CC2CCCCC2)cc1 [Compound 15, 3-[2-[(Cyclohexylmethyl)(4-hydroxyphenethyl)amino]ethyl]phenol Hydrochloride]",EC50,human KOP receptor [1],22.2 ± 7.2 nM
same,Emax,human KOP receptor [1]; [4],≥ 80%
same,Ki,human MOP receptor,234 ± 112 nM
same,Ki,human KOP receptor [2],1.85 ± 0.07 nM
same,ED50,[3],1.9 mg/kg
same,Ki,human DOP receptor,1640 ± 557 nM
C=CCN(CCc1ccc(O)cc1)CCc1cccc(O)c1 [Compound 16],EC50,human KOP receptor [1],248 ± 89 nM
same,Emax,human KOP receptor [1]; [4],28.5%
same,Ki,human MOP receptor,192 ± 17 nM
same,Ki,human KOP receptor [2],43.5 ± 1.5 nM
same,selectivity DOP/KOP,human KOP receptor [2],25
same,selectivity MOP/KOP,human KOP receptor [2],4
same,Ki,human DOP receptor,1100 ± 485 nM
"c1ccc(CCN(CCc2ccccc2)CC2CCC2)cc1 [Compound 22, N-(Cyclobutylmethyl)-N-phenethyl-2-phenylethanamine]",EC50,human KOP receptor [1],359 ± 116 nM
same,Emax,human KOP receptor [1]; [4],≥ 80%
same,Ki,human MOP receptor,1060 ± 263 nM
same,Ki,human KOP receptor [2],79.1 ± 12.5 nM
same,selectivity DOP/KOP,human KOP receptor [2],28
same,selectivity MOP/KOP,human KOP receptor [2],13
same,Ki,human DOP receptor,2180 ± 881 nM
